Results: EP2926811A1, “ARTEMETHER-CONTAINING PHARMACEUTICAL COMPOSITION, PREPARATION, AND USE THEREOF” (Kunming Pharmaceutical Corp., priority 2012, dated 2014)
Where two headings read alike, the source gives them in different places.

Experiments:
Type in all cases: cell-based
MKN-28 cells = experiment: modified MTT method, proliferation of MKN-28 cells; conditions: Homo sapiens, MKN-28, 72 h, secondary screening
Protocol: (§1) Five test concentrations 2, 10, 50, 250 and 500 µM were set for each of five derivatives of artemisinin, artemether drug substance, artemisinin, dihydroartemisinin, artesunate were dissolved with dimethyl sulfoxide (DMSO), while the lyophilized powder of artemether was dissolved with normal saline (N.S.), followed by addition of a certain amount of RPMI 1640 complete culture solution to formulate a high-concentration solution, and each of the low-concentration solutions was formulated by proportionate dilution from the high-concentration solution.
(§2) The concentrations of DMSO contained in the solutions at the two relatively high concentrations 500 and 250 µM for the artemether drug substance, artemisinin, dihydroartemisinin, artesunate, used as solvent controls, were formulated with […] culture solution, at which time the test concentrations of DMSO were 1% and 0.5%. The concentrations of the excipients contained in the solutions at the two relatively high concentrations 500 and 250 µM for the preparation of lyophilized powder of artemether were used as solvent controls.
(§3) The positive control was an anti-cancer drug adriamycin (ADM), which was set at three test concentrations (final concentrations) of 0.1, 1 and 10 µg/ml. To ADM stock solution (1 mg/ml) a certain amount of PRMI 1640 complete culture solution was added, to formulate a high-concentration solution, and each of the low-concentration solutions were formulated by proportionate dilutions from the high-concentration solution.
(§4) HL-60: (human promyelocytic leukemia cell line); K562 (human chronic myelocytic leukemia cell line); HT-29 (human colon cancer cell line); PC-3 (human prostate cancer cell line); A549 (human non-small cell lung cancer cell line); MKN-28 (human gastric cancer cell line); Hep2 (human laryngeal cancer cell line), all of which were purchased from Cell Bank of Shanghai Institutes for Biological Sciences, the Chinese Academy of Sciences.
(§5) Influence of the five test samples on the proliferation of 7 human tumor cell lines was determined via a modified MTT method.
(§6) Cells in logarithmic growth phase were taken, adjusted to a certain concentration and then added into a 96 well culture plate. After culture of adherent cells for a period until adherence, the test samples were added; and for suspension cells, the test samples were added after inoculation. 5 test concentrations 2, 10, 50, 250 and 500 µM were set, with 3 parallel wells for each concentration, 10 µl/well; the solvent controls were 0.5% and 1% of isovolumetric DMSO, and the positive controls was ADM at 3 concentrations 0.1, 1 and 10 µg/ml. The samples were loaded followed by culture for a period of time in an incubator at 37°C, 5% CO2, followed by addition of MTT (5 mg/ml) at 20 µl/well, and continued to be cultured for a period of time and added with a three-combined solution [10% SDS - 5% isobutanol - 0.012 mol/L HCl (W/V/V)]. After dissolving in uniformity, it was continued to be placed in the incubator at 37°C, 5% CO2 for a period of time, and the OD value of each well was determined under a wavelength of 570 nm with a microplate reader, according to which the results were calculated.
(§7) The cellular proliferation inhibition rate was calculated in accordance with the following equation: Inhibition rate (%) = (OD valuecontrol well-OD valuesample well)/OD valuecontrol well × 100% [formula]
(§8) When the inhibition rate of DMSO on cells was more than 15%, calculation was carried out using the following equation: Inhibition rate (%) = (OD valuesolvent group-OD valueadministered well)/OD valuesolvent group × 100% [formula]
(§9) The inhibition rate was calculated by using Microsoft Excel 2003, and median inhibitory concentration IC50 was calculated with a LOGIT method, which was used as an indicator for judging the inhibitory capability.
(§10) According to the results of preliminary screening, further experiments were adjusted such that more sensitive cell lines were screened out. […]

HL-60 cells = experiment: modified MTT method, proliferation of HL-60 cells; conditions: Homo sapiens, read-out: IC50 on the growth of HL-60 cells
Protocol: as §1, §2, §3, §4, §5, §6, §7, §8, §9

HT-29 cells = experiment: modified MTT method, proliferation of HT-29 cells; conditions: Homo sapiens
Protocol: as §1, §2, §3, §4, §5, §6, §7, §8, §9, §10

A549 cells = experiment: modified MTT method, proliferation of A549 cells; conditions: Homo sapiens, read-out: IC50 on the growth of A549 cells
Protocol: as §1, §2, §3, §4, §5, §6, §7, §8, §9

PC-3 cells = experiment: modified MTT method, proliferation of PC-3 cells; conditions: Homo sapiens, read-out: IC50 on the growth of PC-3 cells
Protocol: as §1, §2, §3, §4, §5, §6, §7, §8, §9

7 human tumor cell lines = experiment: modified MTT method, summary over the panel of human tumor cell lines; conditions: on HL-60, K562, MKN-28
From the text: as §4, §5
Cells in logarithmic growth phase were taken, adjusted to a certain concentration and then added into a 96 well culture plate. After culture of adherent cells for a period until adherence, the test samples were added; and for suspension cells, the test samples were added after inoculation. […] After dissolving in uniformity, it was continued to be placed in the incubator at 37°C, 5% CO2 for a period of time, and the OD value of each well was determined under a wavelength of 570 nm with a microplate reader, according to which the results were calculated.
as §9

Hep2 cells = experiment: modified MTT method, proliferation of Hep2 cells; conditions: Homo sapiens, HEp-2, 72 h, secondary screening
Protocol: as §1, §2, §3, §4, §5, §6, §7, §8, §9, §10

K562 cells = experiment: modified MTT method, proliferation of K562 cells; conditions: Homo sapiens, read-out: IC50 on the growth of K562 cells
Protocol: as §1, §2, §3, §4, §5, §6, §7, §8, §9

IC50 (MKN-28 cells; Average, read-out: IC50 on the growth of MKN-28 cells (72 h)): 27.9 µM | IC50 (MKN-28 cells; Batch 1, read-out: IC50 on the growth of MKN-28 cells (72 h)): 35.3 µM | IC50 (MKN-28 cells; Batch 2, read-out: IC50 on the growth of MKN-28 cells (72 h)): 28.1 µM | IC50 (MKN-28 cells; Batch 3, read-out: IC50 on the growth of MKN-28 cells (72 h)): 21.4 µM | IC50 (HL-60 cells; HL-60, 24 h, Batch 1, 24 h): > 1000 µM | IC50 (HL-60 cells; HL-60, 24 h, Batch 2, 24 h): 269 µM | IC50 (HL-60 cells; HL-60, 48 h, Batch 1, 48 h): > 1000 µM | IC50 (HL-60 cells; HL-60, 48 h, Batch 2, 48 h): 39.5 µM | IC50 (HL-60 cells; HL-60, 72 h, Batch 1, 72 h): > 1000 µM | IC50 (HL-60 cells; HL-60, 72 h, Batch 2, 72 h): 145 µM | IC50 (HT-29 cells; HT-29, 24 h, preliminary screening, Batch 1, 24 h, read-out: IC50 on the growth of HT-29 cells): > 1000 µM | IC50 (HT-29 cells; HT-29, 24 h, preliminary screening, Batch 2, 24 h, read-out: IC50 on the growth of HT-29 cells): 323 µM | IC50 (HT-29 cells; HT-29, 48 h, preliminary screening, Batch 1, 48 h, read-out: IC50 on the growth of HT-29 cells): > 1000 µM | IC50 (HT-29 cells; HT-29, 48 h, preliminary screening, Batch 2, 48 h, read-out: IC50 on the growth of HT-29 cells): > 1000 µM | IC50 (HT-29 cells; HT-29, 72 h, preliminary screening, Batch 1, 72 h, read-out: IC50 on the growth of HT-29 cells): > 1000 µM | IC50 (HT-29 cells; HT-29, 72 h, preliminary screening, Batch 2, 72 h, read-out: IC50 on the growth of HT-29 cells): 438 µM | IC50 (HT-29 cells; HT-29, 72 h, secondary screening, 72 h, Batch 1, read-out: IC50 on the growth of HT-29 cells (72 h)): 328 µM | IC50 (HT-29 cells; HT-29, 72 h, secondary screening, 72 h, Batch 2, read-out: IC50 on the growth of HT-29 cells (72 h)): 306 µM | IC50 (HT-29 cells; HT-29, 72 h, secondary screening, 72 h, Batch 3, read-out: IC50 on the growth of HT-29 cells (72 h)): 200 µM | IC50 (HT-29 cells; HT-29, 72 h, secondary screening, 72 h, average, read-out: IC50 on the growth of HT-29 cells (72 h)): 225 µM | IC50 (A549 cells; A549, 24 h, Batch 1, 24 h): > 1000 µM | IC50 (A549 cells; A549, 24 h, Batch 2, 24 h): > 1000 µM | IC50 (A549 cells; A549, 48 h, Batch 1, 48 h): > 1000 µM | IC50 (A549 cells; A549, 48 h, Batch 2, 48 h): 272 µM | IC50 (A549 cells; A549, 72 h, Batch 1, 72 h): > 1000 µM | IC50 (A549 cells; A549, 72 h, Batch 2, 72 h): 225 µM | IC50 (PC-3 cells; PC-3, 24 h, Batch 1, 24 h): > 1 mM | IC50 (PC-3 cells; PC-3, 24 h, Batch 2, 24 h): > 1 mM | IC50 (PC-3 cells; PC-3, 48 h, Batch 1, 48 h): > 1 mM | IC50 (PC-3 cells; PC-3, 48 h, Batch 2, 48 h): > 1 mM | IC50 (PC-3 cells; PC-3, 72 h, Batch 1, 72 h): > 1 mM | IC50 (PC-3 cells; PC-3, 72 h, Batch 2, 72 h): > 1 mM | IC50 (K562 cells; K562, 24 h, Batch 1, 24 h): > 1000 µM | IC50 (K562 cells; K562, 24 h, Batch 2, 24 h): > 1000 µM | IC50 (K562 cells; K562, 24 h, Batch 3, 24 h): 494 µM | IC50 (K562 cells; K562, 48 h, Batch 1, 48 h): 322 µM | IC50 (K562 cells; K562, 48 h, Batch 2, 48 h): > 1000 µM | IC50 (K562 cells; K562, 48 h, Batch 3, 48 h): 141 µM | IC50 (K562 cells; K562, 72 h, Batch 1, 72 h): 39.3 µM | IC50 (K562 cells; K562, 72 h, Batch 2, 72 h): > 1000 µM | IC50 (K562 cells; K562, 72 h, Batch 3, 72 h): 90.1 µM
SMILES: C[C@H]1[C@H](OC(=O)CCC(=O)O)O[C@@H]2O[C@@]3(C)CC[C@H]4[C@H](C)CC[C@@H]1[C@@]24OO3 [artesunate]
inhibitory effect in vitro (7 human tumor cell lines): only shows inhibitory effect | IC50 (Hep2 cells; Batch 1, read-out: IC50 on the growth of Hep2 cells (72 h)): 119 µM | IC50 (Hep2 cells; Batch 2, read-out: IC50 on the growth of Hep2 cells (72 h)): 93.2 µM | IC50 (Hep2 cells; Batch 3, read-out: IC50 on the growth of Hep2 cells (72 h)): 212 µM | IC50 (Hep2 cells; average, read-out: IC50 on the growth of Hep2 cells (72 h)): 149 µM
